Values after ≈ are worked out from the molar mass of the structure shown. Read-outs that look alike come from different tables or passages of the source.

The test system of one data set is IMR32 cells. The format is cell-based, human.
The subject of data set [1] is PrP^C in T98G cells. Format: cell-based, human.
For data set [2], the system named is PrP^C in IMR32 cells. Format: cell-based, human.
The test system of the next data set is T98G cells. As to the kind of experiment: cells. The format is cell-based, human. Particulars: calcein, T98G cells.
Data set [3] has as its system PrP^C in IMR32 cells. The format is cell-based, human. The source holds these as a separate data set.
The test system of data set [4] is PrP^C in T98G cells. The format is cell-based, human. The source holds these as a separate data set.
Another data set has as its system prion-infected mice. Particulars: literature reports; cited from earlier work.
In data set [5] the test system is PrP^Sc in dividing ScN2a-c13 cells.
Data set [6] concerns PrP^Sc in nondividing ScN2a-cl3 cells. The note with it: previously demonstrated; cited from earlier work.
Data set [7] concerns PrP^Sc in dividing ScN2a-cl3 cells. The note with it: previously demonstrated; cited from earlier work.
The nature of a further data set: Binding in human plasma. Particulars: 1 μM; mean ± SD, n = 3 (warfarin n = 2).
The nature of data set [8]: Fraction unbound in cell-culture media. The format is in vitro ADME. Particulars: 1 μM; mean ± SD, n = 3.
A short description of data set [9]: Hepatic microsomal stability, rat.
The subject of data set [10] is PrP^Sc in dividing ScN2a-cl3 cells. The format is cell-based, mouse.
Data set [11] can be described thus: Single-dose pharmacokinetics in FVB mice (oral gavage, IV). The note with it: female, FVB, mouse, po, 10 mg/kg.
A short description of data set [12]: Multidose (three-day) pharmacokinetics in liquid diet in FVB mice. Particulars: FVB, mouse, in vivo, 100 mg/kg/day, Brain concentrations, 3 days, FVB mice.
Data set [13] relates to PrP^Sc in nondividing ScN2a-c13 cells. The format is cell-based, mouse.
A short description of the next data set: Binding in mouse plasma. Particulars: 1 μM; mean ± SD, n = 3 (warfarin n = 2).
Data set [14] is described as follows: Hepatic microsomal stability, human. Particulars: for half-life at 1 μM: human, pH 7.4.
The nature of data set [15]: Hepatic microsomal stability, mouse. The note with it: for half-life at 1 μM: CD-1, mouse, pH 7.4.
The nature of data set [16]: Tolerability / toxicity on repeated dosing in mice.
The nature of data set [17]: Toleration studies in mice.
Another data set in a line: Media solubility. Format: physicochemical. The note with it: cell media. Here is the method: To evaluate media solubility, two protocols were followed. In the first, solutions were prepared as described above. After overnight equilibration, samples were centrifuged for 30 min, without filtration, and supernatant analyzed by HPLC/UV/VIS with reference to three standards (5, 100, 250 μM). In the second protocol, turbidimetric analysis, dilutions of the compound of interest were prepared in media with target concentrations of 5, 10, 20, 50, 100, 200 and 300 μM. Media without solute was included for background. These solutions were evaluated using a light scattering technique and a Nepheloskan instrument.

As usually defined, the EC50 is the concentration at which the effect is half-maximal. Regarding `O=C(Cc1ccc(Br)cc1)NCc1ccccc1` [IND-0061769], the “% Inhibition: Calcein (IMR32)” value with IMR32 cells is 21%. In the data set with PrP^C in T98G cells [1], the “% Inhibition: SPC (T98G)” value is “MW: 304.2 % Inhibition: SPC (IMR32): 46 Calcein: 21 SPC (T98G): 63 Calcein: 38”. The “% Inhibition: SPC (IMR32)” value in the data set on PrP^C in IMR32 cells [2] was “MW: 304.2 % Inhibition: SPC (IMR32): 46 Calcein: 21 SPC (T98G): 63 Calcein: 38”. In addition, the “% Inhibition: Calcein (T98G)” value in the data set on T98G cells is given as 38%. Further, the EC50 is 2050 nM in the data set with PrP^C in IMR32 cells [3] (read-out: EC50, PrP^C, IMR32 cells) and 1840 nM with PrP^C in T98G cells [4] (read-out: EC50, PrP^C).
As to `CCN(CC)CCCC(C)Nc1c2ccc(Cl)cc2nc2ccc(OC)cc12` (stereo not shown) [quinacrine], the “effect in prion-infected mice” value in the data set with prion-infected mice is reported as “ineffective”. Besides, the “PrP^C levels, HTS of FDA-approved drugs” value with PrP^C in IMR32 cells [3] is “lowered”. Besides, the “PrP^Sc levels, HTS of FDA-approved drugs” value in data set [5] (HTS of 1,700 FDA-approved drugs) is reported as “lowered”. Also, the “Clearance of PrP^Sc in nondividing prion-infected cells” value in data set [6] is reported as “relatively ineffective”. Moreover, in data set [7], the “Clearance of PrP^Sc in dividing cells” value is on record as “rapidly clears dividing cells of PrP^Sc”.
One may read the half-life as the time needed for the level to fall by half in the phase considered. Low readings indicate rapid decline, high ones slow decline. One may read the Kp as tissue or fluid exposure divided by exposure in the circulation. One may read the bioavailability as dose-corrected exposure relative to a reference, in per cent. `C(=N\Nc1ccc(-c2cnco2)cc1)/c1ccncc1` [Compound B, (E)-5-(4-(2-(pyridin-4-ylmethylene)hydrazinyl)phenyl)oxazole, reference compound]: the “effect in prion-infected mice” value with prion-infected mice is on record as “extended the incubation times”. Also, the “Unbound (%), Human Plasma” value in “Binding in human plasma” was 2.10 ± 1.11%. Moreover, in [8], the “Unbound (%), Cell-culture Media” value is 36.5 ± 3.30%. The half-life at 1 μM in data set [9] (Sprague-Dawley, rat, […], pH 7.4) is over 60 min; in [14] (human liver microsomes) it was over 60 min; in data set [15] (mouse liver microsomes), 30 min. Besides, in data set [9] ([…]), the “% remaining after a 60-min incubation, Rat” value came to 77%. The EC50 is 246 nM in data set [10] (Table 29, 2-AMT analogs tested for potency, usually n = 3 or more) and 400 nM in [10] (read-out: EC50, PrP^Sc ELISA in dividing ScN2a-c13 cells). The Kp in data set [11] (brain and plasma) amounted to 0.5. Besides, in data set [11] (plasma), the bioavailability was in the range of 25 to 27%. In [12], this compound gave a concentration at 3 days of about 10 µM. The “activity on PrP^Sc in nondividing cells (in words)” value in [13] is “inactive”. For the same compound, the “Unbound (%), Mouse Plasma” value in the data set “Binding in mouse plasma” is recorded as 9.06 ± 2.31%. Also, in data set [14] (human liver microsomes), the “% remaining after a 60-min incubation, Human” value turned out to be 68%. Also, the “Hepatic Extraction Ratio Mouse” value in data set [15] (mouse) amounted to 0.8. The “% remaining after a 60-min incubation, Mouse” value in [15] (mouse liver microsomes) worked out at 29%. Also, the “dose with lethal toxicity” value is listed as over 110 mg/kg/day in data set [16] (administered chronically in vivo for eight days) and at least 150 mg/kg/day in data set [16] (administered in vivo). The tolerated dose entry in [16] (at least eight days) is given as “up to 100 mg/kg/day”. For the same compound, the “brain concentration as multiple of EC50” value in data set [16] (doses up to 100 mg/kg/day for at least eight days) was over 10 ×EC50. Besides, the Toleration entry in [17] (25, 50, 100, and 150 mg/kg for 3 days in liquid rodent diet, FVB mice) was “All doses were tolerated, with no animals showing lethal toxicity”. Moreover, the animals dying in data set [17] (≧150 mg/kg/day for 8 days) is given as 2/4.
As to `O=C(O)c1cccc2c1NC(C(=O)O)C1CC=CC21` (stereo not shown) [IND-0001270, 3a, 4,5,9b-tetrahydro-3H cyclopenta[c]quinoline-4,6-dicarboxylic acid], the “activity on PrP^C (in words)” value in the data set with PrP^C in IMR32 cells [3] (IMR32 cells) and with PrP^C in T98G cells [4] was “active” each time. The “activity on PrP^Sc in nondividing cells (in words)” value in data set [13] is given as “active”. Moreover, the “antiprion activity (in words)” value in [5] (dividing ScN2a-c13 cells) was “active”.
What is called solubility is the dissolved amount per volume that the medium holds. A lower solubility goes with a poorly soluble substance. With `COc1ccc(Nc2nc(-c3ccc(OC)c(OC)c3)cs2)nc1` [IND44, [4-(3,4-Dimethoxy-phenyl)-thiazol-2-yl]-(5-methoxy-pyridin-2-yl)-amine], the solubility was under 1 µM in “physchem” (FaSSIF); 3 µM (≈ 1.03 µg/mL) in the data set “physchem” (cell culture media, plasma or biological fluid); 1 µM (≈ 0.343 µg/mL) in the data set “physchem” (pH 2 (HCl) buffer, pH 2, simulated gastric fluid); under 1 µM in “physchem” (pH 7.4 (phosphate) buffer, pH 7.4, aqueous buffer). Besides, in data set [9] ([…]), the “t1/2 in min, Rat” value was determined as 45 min. Moreover, the “% remaining after a 60-min incubation, Rat” value in data set [9] ([…]) is reported as 39%. For the same compound, the “t1/2 Rat” value in [9] (rat microsomes) was 45 min. Moreover, the “solubility in media (in words)” value in the data set “Media solubility” is given as “lower solubility”. Also, the “solubility in FaSSIF (in words)” value (fasted-state simulated intestinal fluid) is given as “lower solubility”. For the setting “pH 2 (HCl) buffer”, the “solubility at pH 2.0 (in words)” value is “lower solubility”. The “solubility at pH 7.4 (in words)” value (pH 7.4 phosphate buffer) is “lower solubility”. For the same compound, the “% remaining after a 60-min incubation, Human” value in data set [14] (human liver microsomes) is on record as 48%. In addition, the half-life at 1 μM in data set [14] (human liver microsomes) amounted to 58 min; in data set [14] (liver microsomes), 58 min; in data set [15] (liver microsomes), 29 min; in [15] (mouse liver microsomes), 29 min. The “% remaining after a 60-min incubation, Mouse” value in data set [15] (mouse liver microsomes) is recorded as 24%.
